# Source: US20160184404A1, “NOVEL HEMOGLOBIN-DERIVED PEPTIDE BASED PHARMACEUTICAL COMPOSITIONS” (CLINIQUE LA PRAIRIE, priority 2014, published 2016)
# Columns and labels:
# [1] = test system: Human MNC; assay: Stimulation of human MNC with MPLA in the presence of Hb-derived peptides, cytokine ELISA of supernatant; assay type: cell-based; details: for synergistic activity with MPLA, IL-6 release / synergistic activity in enhancing the MPLA-induced cytokine (IL-8) release, screen of native Hbγ1-peptide library: 20 h; for synergistic activity in enhancing the MPLA-induced cytokine (IL-8) release, screen of native Hbγ1-peptide library: MPLA 10 μg/ml, peptide 10 μM, FIG. 4
# Experimental: Human mononuclear cells (MNC) were isolated from peripheral blood of healthy donors by density-gradient centrifugation on Ficoll gradient media (PAA Laboratories GmbH, Pasching, Austria). The cells were suspended and cultured in RPMI-1640 medium, containing […]. 50 μl of a peptide solution were incubated with 50 μl of a MPLA solution in a U-form 96 well micro cell culture plate #3799 (Corning Costar GmbH, Bodenheim, Germany) for 15 min at 37° C. After this incubation period 20 μl of heat-inactivated (56° C./30 min) human serum or RPMI-1640 medium were added. Finally, 80 μl of a MNC cell suspension was added to give a final concentration of 1 to 2×10^6 cells for culture in the absence of human serum or 1×10^6 cells for culture in the presence of serum. After a culture time of 20 h the cells were spun down and the culture supernatants were harvested. The cytokine concentrations in the supernatants were determined by matched antibody pairs for ELISA obtained from Invitrogen GmbH, Darmstadt (Germany). Mostly, each value represents the mean±SD of duplicate culture. In FIG. 3 the mean of three independent experiments is given, each of these three independent experiments having duplicate cultures.
# [2] = Atomic force microscopy of MPLA dispersions; assay type: physicochemical; details: MPLA 25 μM on mica, alone or with equimolar peptide; after one hour
# Experimental: Atomic force microscopy (AFM) allows a direct look onto the morphology of lipid aggregates on a molecular scale under almost physiological conditions. This allows obtaining depth profiles of MPLA dispersions down to a resolution limit of lower than 1 nm. For the analysis, MPLA dispersions were prepared at a concentration of 25 μM in physiological saline in the absence and presence of an equimolar content of Hbg-32.
# [3] = Freeze-fracture transmission electron microscopy of MPLA; assay type: physicochemical; details: MPLA 1 mM alone or with equimolar peptide; FIG. 25
# Experimental: A small amount of the samples was sandwiched between two copper profiles and frozen by plunging the sandwiches immediately into liquefied ethane-propane-mixture cooled in liquid nitrogen. Fracturing and replication were performed at −150° C. in a BAF 400T freeze-fracture device (BAL-TEC, Balzers, Liechtenstein) equipped with electron guns and a film sheet thickness monitor. For replication Pt(C) was evaporated under an angle of 35° and (C) under 90°. The replicas were placed on copper grids and cleaned with a chloroform-methanol mixture.
# [4] = Small angle X-ray scattering (SAXS) of MPLA aggregates; assay type: physicochemical
# Experimental: SAXS measurements were performed at the European Molecular Biology Laboratory (EMBL) outstation at the Hamburg synchrotron radiation facility HASYLAB using the camera X33. Diffraction patterns in the range of the scattering vector 0.1<s<1.0 nm^−1 (s=2 sin θ/λ, 2θ scattering angle and A the wavelength=0.15 nm) were recorded at 40° C. with exposure times of 1 min using an image plate detector with online readout (MAR345, MarResearch, Norderstedt/Germany). The lipid concentration was in all cases 20 mM. The s-axis was calibrated with Ag-behenate, which has a periodicity of […]. The diffraction patterns were evaluated as described previously (Howe et al. (2008a)), assigning the spacing ratios of the main scattering maxima to defined three-dimensional structures. The lamellar and cubic structures are the most relevant here. The following features characterize the supramolecular structure: • (1) lamellar: The reflections are grouped in equidistant ratios, i.e., 1, ½, ⅓, ¼, etc. of the • lamellar repeat distance dλ; • (2) cubic: The different space groups of these non-lamellar three-dimensional structures differ in the ratio of their spacings. The relation between reciprocal spacing shkl=1/dhkl and lattice constant a is
# […] • (hkl=Miller indices of the corresponding set of plane).
# [5] = test system: human memory T-cell; assay: Stimulation of memory T-cells in human MNC with recall antigens PPD and TT, 3H-thymidine incorporation; assay type: cell-based; details: FIG. 20
# Experimental: For stimulation of T-lymphocytes, human MNC were cultured in RPMI-1640 medium, containing […], and 10% of inactivated human serum at a concentration of 0.5 to 1.0×10^6 cells per ml in flat-bottom 96-well tissue culture plates. To investigate the adjuvant effect of MPLA and Hbg-peptides, the recall antigens tetanus toxoid (TT) and purified protein derivatives of M. tuberculosis (PPD) (both from Statens Serum Institute, Copenhagen, Danmark) were used. After 6 days of culture, cells were labeled with ^3H-Thymidine (3HTdR (2 Ci/mmol, 0.2 μCi/culture)) and after an additional day of culture the cells were harvested on glass-filter mats for measurement of incorporated radioactivity into the DNA. The results are expressed as mean±SD of duplicate cultures.
# There is a close interaction between the innate immune system, as presented by e.g. monocytes and dendritic cells, and the adaptive immune system, as presented by T-lymphocytes and B-lymphocytes. Monocytes and dendritic cells present antigenic fragments to the cells of the adaptive immune system to initiate a specific immune reaction. In addition, they support the strength and polarization of the immune response by means of the release of cytokines. […]
# [6] = test system: Purified human monocytes; assay: Stimulation of purified human monocytes with MPLA in the presence of Hbγ1-peptides, IL-6 ELISA; assay type: cell-based; details: MPLA 1 μg/ml; peptide 1, 3, 10 μM; FIG. 9
# Experimental: FIG. 9: Synergistic effect of Hbg-23 and Hbg-32 peptide on stimulation of human monocytes with MPLA. Purified human monocytes (>95%) were stimulated with MPLA (1 μg/ml) in the presence or absence of the Hbγ1-peptides Hbg-23 and Hbg-32-107 (1, 3 and 10 μM). Control cultures were kept without MPLA. After a culture period of 20 h, the IL-6 concentration in the supernatant was determined by ELISA. Each value represents the mean±SD of duplicate cultures.
# Human mononuclear cells (MNC) were isolated from peripheral blood of healthy donors by density-gradient centrifugation on Ficoll gradient media (PAA Laboratories GmbH, Pasching, Austria). The cells were suspended and cultured in RPMI-1640 medium, containing […]. 50 μl of a peptide solution were incubated with 50 μl of a MPLA solution in a U-form 96 well micro cell culture plate #3799 (Corning Costar GmbH, Bodenheim, Germany) for 15 min at 37° C. After this incubation period 20 μl of heat-inactivated (56° C./30 min) human serum or RPMI-1640 medium were added. […] The cytokine concentrations in the supernatants were determined by matched antibody pairs for ELISA obtained from Invitrogen GmbH, Darmstadt (Germany). […]
# [7] = MPLA 1 μg/ml, peptide 0.1-10 μM, FIG. 5, 19
# [8] = MPLA 3 μg/ml, peptide 1, 3, 10 μM, FIG. 7, 10, 12, 15, 16, 29
substance,measurement,setting,value
"VLAIHFGKEFTPEVQASW [Hbg-68, Hbγ1[113-130], common part structure of peptides Hbg-32 to Hbg-39]","synergistic activity with MPLA, IL-6 release",[1]; [7],only a minute synergistic activity or no activity at all
CVLAHHFGKEFTPPVQAAYQKVVAGVANAL (Hbb-67),"synergistic activity with MPLA, IL-6 release",[1]; [8],synergistically active in a similar range as Hbg-35-146m
Hbg-51: Hbg-35 alanine-scan peptide with Phe122/Ala-replacement (TVLAIHFGKEATPEVQASWQKMVTAVASAL; Hbg-51),"effect of alanine replacement on the synergistic activity of Hbg-35 with MPLA, IL-6 release","[1]; alanine-scan, MPLA 3 μg/ml, peptide 3 μM, FIG. 18",enhanced the synergistic activity of Hbg-35
VTLAAHLPAEFTPAVHASLDKFLASVSTVL (Hba-66),"synergistic activity with MPLA, IL-6 release",[1]; [8],only a minimal synergistic activity
TPEVQASWQKMVTAVA [Hbg-69],"synergistic activity with MPLA, IL-6 release",[1]; [7],only a minute synergistic activity or no activity at all
Monophosphoryl lipid A [MPLA],morphology of MPLA aggregates (AFM),[2],densely packed multi-lamellar aggregates with some hundred nm extension in z-direction
same,morphology of MPLA aggregates (freeze-fracture electron microscopy),[3],very densely and lamellar packed aggregates with large sizes in the micrometer range
same,aggregate structure of MPLA (SAXS),"[4]; MPLA alone or in the presence of peptide, 40° C., FIG. 22",largely multi-lamellar
same,"sharp reflection (multi-lamellar periodicity), SAXS","[4]; MPLA alone, FIG. 22A",4.11 nm
same,adjuvant activity on the stimulation of T-memory cells with recall antigens,"[5]; PPD 1 μg/ml or TT 0.1 LF/ml, MPLA 10-1000 ng/ml",very effective adjuvant activity
same,MPLA concentration sufficient to exert a nearly optimal adjuvant effect,[5]; PPD or TT induced proliferation,≤ 10 ng/mL
"Hbg-24: native overlapping 15 or 16 amino acid peptide of human Hbγ1, Hbγ116-130 (IHFGKEFTPEVQASW; Hbg-24)","synergistic activity with MPLA, IL-6 release",[1]; [7],strong synergistic activity
same,"synergistic activity in enhancing the MPLA-induced cytokine (IL-8) release, screen of native Hbγ1-peptide library",[1],best hits
same,"synergistic activity in enhancing the MPLA-induced cytokine (IL-8) release, screen of native Hbγ1-peptide library",[1]; listed as No. 24,profound synergistic activities
"Hbg-23: native overlapping 15 or 16 amino acid peptide of human Hbγ1, printed Hbγ11-125 (VTVLAIHFGKEFTPE; Hbg-23)","synergism with MPLA in stimulating purified human monocytes, IL-6 release",[6],synergize with MPLA
same,"synergistic activity with MPLA, IL-6 release",[1]; [7],strong synergistic activity
same,"synergistic effect with MPLA in the absence and presence of human serum, IL-6 release","[1]; MPLA 3 μg/ml, peptide 1, 3, 10 μM, with or without 10% human serum, FIG. 8, 14",synergistic effects in the absence as well as in the presence of human serum
same,"synergistic activity in enhancing the MPLA-induced cytokine (IL-8) release, screen of native Hbγ1-peptide library",[1],best hits
same,"synergistic activity in enhancing the MPLA-induced cytokine (IL-8) release, screen of native Hbγ1-peptide library",[1]; listed as No. 23,profound synergistic activities
same,"synergistic effect with MPLA during induction of IL-release, second batch of peptide","[1]; second batch, data not shown",no synergistic effect
"Hbg-25: peptide of the native Hbγ1-peptide library that includes F122, E125 and V126 (EFTPEVQASWQKMVT; Hbg-25)","synergistic activity in enhancing the MPLA-induced cytokine (IL-8) release, screen of native Hbγ1-peptide library",[1],inactive
